Tests used:
[1] = test system: Pyricularia oryzae (rice blast); assay: whole plant or invertebrate; type: in vivo; conditions: foliar, read-out: RICE BLAST control rating
[2] = test system: Southern corn rootworm (Diabrotica undecimpuctata howardi Barber); assay: Mite/insect screen, corn rootworm; type: in vivo; conditions: soil; for mortality at 12 ppm / mortality at 24 ppm: Diabrotica, read-out: CRW results (percent mortality)
Summary of the method: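 Five 2-3 instar larvae per cup were placed on sandy soil (15 g, with presoaked corn seed) treated 6–12 h earlier with 1 mL test solution, an emulsified acetone/alcohol formulation diluted in water. Cups kept at 23° C; mortality and phytotoxicity assessed as percent after standard exposures.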

[3] = test system: southern armyworm (Spodopetra eridania Cramer); assay: Mite/insect screen, Southern armyworm; type: in vivo; conditions: sprayed leaves; for mortality at 200 ppm / mortality at 400 ppm: Spodoptera eridania, read-out: SAW results (percent mortality)
Summary of the method: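 Southern armyworm larvae placed in Petri dishes with two excised squash leaves that had been sprayed to runoff (10 psi) with emulsified compound and air-dried for 1 h. Mortality in percent recorded after a standard exposure period; formulation acetone/alcohol plus Toximul R and S, water-diluted.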

[4] = test system: Twospotted spider mites (Tetranychus urticae Koch); assay: Mite/insect screen, twospotted spider mites; type: in vivo; conditions: sprayed leaves; for mortality at 200 ppm / mortality at 400 ppm: Tetranychus urticae, read-out: SM results (percent mortality)
Summary of the method: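 Percent mortality, along with phytotoxicity, was read after standard exposure periods. Beforehand, mites established on both surfaces of squash cotyledons received a runoff spray (10 psi) of water-diluted compound formulated in acetone/alcohol with sulfonate/nonionic emulsifiers.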

[5] = test system: melon aphids (Aphis gossvpii Glover); assay: Mite/insect screen, melon aphids; type: in vivo; conditions: sprayed leaves; for mortality at 200 ppm / mortality at 400 ppm: Aphis, read-out: MA results (percent mortality)
Summary of the method: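 Percent mortality of melon aphids was assessed after standard exposure periods. Infested squash cotyledons had been sprayed on both leaf surfaces until runoff at 10 psi with water-diluted test solutions. Compounds were formulated in acetone/alcohol (50:50) containing emulsifiers.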

[6] = test system: Puccinia recondita tritici (leaf rust); assay: Plant pathology screen (Test 1), leaf rust on wheat; conditions: in Triticum aestivum, foliar, read-out: LEAF RUST control rating
[7] = test system: Pseudoperonospora cubensis (downy mildew); assay: Plant pathology screen (Test 1), downy mildew on squash; conditions: foliar, read-out: DOWN MDEW control rating
[8] = test system: Erysiphe graminis tritici (powdery mildew); assay: Plant pathology screen (Test 1), powdery mildew on wheat; conditions: Blumeria graminis, in Triticum aestivum, foliar, read-out: POWD MDEW control rating
[9] = test system: Botrytis cinerea (gray mold); assay: Plant pathology screen (Test 1), gray mold on grape berries; conditions: read-out: GRAY MOLD control rating
Method: This screen was used to evaluate the efficacy of the present compounds against a variety of different organisms that cause plant diseases.
The test compounds were formulated for application by dissolving 50 mg of the compound into 1.25 ml of solvent. The solvent was prepared by mixing 50 ml of "Tween 20" (polyoxyethylene (20) sorbitan monolaurate emulsifier) with 475 ml of acetone and 475 ml of ethanol. The solvent/compound solution was diluted to 125 ml with deionized water. The resulting formulation contains 400 ppm test chemical. Lower concentrations were obtained by serial dilution with the solvent-surfactant mixture.
The formulated test compounds were applied by foliar spray. The following plant pathogens and their corresponding plants were employed.
The formulated technical compounds were sprayed on all foliar surfaces of the host plants (or cut berry) to past run-off. Single pots of each host plant were placed on raised, revolving pedestals in a fume hood. Test solutions were sprayed on all foliar surfaces. All treatments were allowed to dry and the plants were inoculated with the appropriate pathogens within 2-4 hours.
The effectiveness of test compounds in controlling disease was rated using the following scale.

| Compound | pest or weed control at 400 µg/mL [1] | mortality at 12 ppm ([2]; CRW rate 12.00 ppm) | mortality at 24 ppm ([2]; CRW rate 24.00 ppm) | mortality at 200 ppm ([3]; rate 200 ppm) | mortality at 400 ppm ([3]; rate 400 ppm) | mortality at 200 ppm ([4]; rate 200 ppm) | mortality at 400 ppm ([4]; rate 400 ppm) | mortality at 200 ppm ([5]; rate 200 ppm) | mortality at 400 ppm ([5]; rate 400 ppm) | pest or weed control at 400 µg/mL [6] | pest or weed control at 400 µg/mL [7] | pest or weed control at 400 µg/mL [8] | pest or weed control at 400 µg/mL [9] | also measured |
| --- | --- | --- | --- | --- | --- | --- | --- | --- | --- | --- | --- | --- | --- | --- |
| Cc1oc2ncnc(OCCN3C[C@@H](C)O[C@@H](C)C3)c2c1C [Example 57, Cis-5,6-dimethyl-4-[2-(2,6-dimethyl-4-morpholinyl)ethoxy]furo[2,3-d]pyrimidine] | 0 to 19% | 0% | 0% | 0% | 0% | 0% | 0% | 0% | 0% | 0 to 19% | 20 to 89% | 0 to 19% | 0 to 19% | CRW results (percent mortality) ([2]; CRW rate 12.00 ppm): 0%; CRW results (percent mortality) ([2]; CRW rate 24.00 ppm): 0%; SAW results (percent mortality) ([3]; rate 200 ppm): 0%; SAW results (percent mortality) ([3]; rate 400 ppm): 0%; SM results (percent mortality) ([4]; rate 200 ppm): 0%; SM results (percent mortality) ([4]; rate 400 ppm): 0%; MA results (percent mortality) ([5]; rate 200 ppm): 0%; MA results (percent mortality) ([5]; rate 400 ppm): 0% |
| Cc1oc2ncnc(Oc3ccc(F)cc3Cl)c2c1C [Example 59, 4-(2-chloro-4-fluorophenoxy)-5,6-dimethylfuro[2,3-d]pyrimidine] | 0 to 19% | 0% | 0% | 0% | 0% | 0% | 0% | 0% | 0% | 20 to 89% | 0 to 19% | 90 to 100% | 0 to 19% | – |
| Cc1oc2ncnc(OCC3CCC(C)O3)c2c1C (stereo not drawn) [Example 60, 5,6-dimethyl-4-[(2-methyloxolan-5-yl)methoxy]furo[2,3-d]pyrimidine] | 0 to 19% | 0% | 0% | 0% | 0% | 0% | 80% | 50% | 60% | 0 to 19% | 90 to 100% | 0 to 19% | 0 to 19% | – |
| Cc1oc2ncnc(OCCc3cccs3)c2c1C [Example 61, 5,6-dimethyl-4-[2-(2-thienyl)ethoxy]furo[2,3-d]pyrimidine] | 20 to 89% | 0% | 0% | 0% | 0% | 90% | 0% | 90% | 0% | 20 to 89% | 90 to 100% | 90 to 100% | 0 to 19% | – |
| Cc1ccc(Oc2ncnc3oc(C)c(C)c23)cc1 [Example 62, 5,6-dimethyl-4-(4-methylphenoxy)furo[2,3-d]pyrimidine] | 0 to 19% | 0% | 0% | 0% | 0% | 0% | 0% | 0% | 0% | 0 to 19% | 0 to 19% | 90 to 100% | 0 to 19% | – |
| Cc1oc2ncnc(Oc3cccc(C(F)(F)F)c3)c2c1C [Example 63, 5,6-dimethyl-4-[3-(trifluoromethyl)phenoxy]furo[2,3-d]pyrimidine] | 0 to 19% | 0% | 0% | 0% | 0% | 0% | 50% | 0% | 80% | 0 to 19% | 20 to 89% | 0 to 19% | 0 to 19% | – |
| Cc1oc2ncnc(Oc3ccccc3)c2c1C [Example 64, 5,6-dimethyl-4-phenoxyfuro[2,3-d]pyrimidine] | 0 to 19% | 0% | 0% | 0% | 0% | 0% | 0% | 0% | 0% | 20 to 89% | 90 to 100% | 90 to 100% | 0 to 19% | – |
| COc1ccc(Oc2ncnc3oc(C)c(C)c23)cc1 [Example 65, 5,6-dimethyl-4-(4-methoxyphenoxy)furo[2,3-d]pyrimidine] | 0 to 19% | 0% | 0% | 0% | 0% | 0% | 0% | 0% | 0% | 0 to 19% | 0 to 19% | 20 to 89% | 0 to 19% | – |
| Cc1oc2ncnc(Oc3ccccc3F)c2c1C [Example 66, 4-(2-fluorophenoxy)-5,6-dimethylfuro[2,3-d]pyrimidine] | 0 to 19% | 0% | 0% | 0% | 0% | 0% | 0% | 0% | 0% | 20 to 89% | 90 to 100% | 90 to 100% | 0 to 19% | – |
| Cc1oc2ncnc(OCC(C)c3ccc(CC(C)C)cc3)c2c1C (stereo not drawn) [Example 67, 4-[2-[4-(2,2-dimethylethyl)phenyl]-2-methylethoxy]5,6-dimethylfuro[2,3-d]pyrimidine] | 90 to 100% | 0% | 0% | 0% | 0% | 100% | 100% | 100% | 100% | 20 to 89% | 20 to 89% | 20 to 89% | 20 to 89% | – |
| Cc1oc2ncnc(NCCc3ccc(OC(F)(F)F)cc3)c2c1C [Example 68, 5,6-dimethyl-N-[2-[4-(trifluoromethoxy)phenyl]ethyl]furo[2,3-d]pyrimidin-4-amine] | 90 to 100% | – | 0% | – | 100% | – | 30% | – | 90% | 20 to 89% | 90 to 100% | 20 to 89% | 0 to 19% | – |
| Cc1oc2ncnc(OCCc3ccc(OC(F)(F)F)cc3)c2c1C [Example 69, 5,6-dimethyl-4-[2-[4-(trifluoromethoxy)phenyl]ethoxy]furo[2,3-d]pyrimidine] | 20 to 89% | – | 0% | – | 0% | – | 90% | – | 90% | 20 to 89% | 0 to 19% | 90 to 100% | 0 to 19% | – |
| Cc1oc2ncnc(OCCc3ccc4c(c3)OC(F)(F)O4)c2c1C [Example 70] | 0 to 19% | – | 0% | – | 0% | – | 0% | – | 0% | 0 to 19% | 0 to 19% | 0 to 19% | 0 to 19% | – |
| CCCCCCOc1ccc(CC(CNc2ncnc3oc(C)c(C)c23)c2cccc3ccccc23)cc1 (stereo not drawn) [Example 71, 5,6-dimethyl-N-[3-[4-(n-hexyloxy)phenyl]-2-(1-naphthyl)propyl]furo[2,3-d]pyrimidin-4-amine] | 0 to 19% | – | 0% | – | 0% | – | 0% | – | 0% | 0 to 19% | 0 to 19% | 0 to 19% | 0 to 19% | – |

Source: patent publication US5486516A, “Furopyrimidine derivatives” (DowElanco, priority 1993, dated 1996)
